Where two headings read alike, the source gives them in different places. Ends that are not written are not given here.

This is an account of results in patent EP0441832B1, “COMPOSITION AND TREATMENT WITH BIOLOGICALLY ACTIVE PEPTIDES AND CERTAIN ANIONS” (THE CHILDREN'S HOSPITAL OF PHILADELPHIA, priority 1988, dated 1990).

Holding throughout (format): cell-based
Data set [1] concerns E. cloacae. Put plainly: Killing of bacteria: 15 min incubation in trypticase soy broth, then plating for viable organisms. As to the method: If 10⁷ E. cloacae organisms are inoculated into 1 ml of TSB in the presence of 60 ug/ml of MGN2, about 10⁶ bacteria are found to be viable on plating. […] The effective killing power of this antibiotic at a given concentration has been potentiated over 1 million-fold by the addition of fluoride.
LEGEND: Organisms were incubated in a volume of 1 ml in either trypticase soy broth alone or containing substances noted for 15 min at 37 °C. An aliquot was then diluted and plated to determine number of viable organisms.

Data set [2] concerns ENTEROBACTER CLOACAE. How it is done:
(§1) Approximately 1,000 bacteria were seeded into about 200 ul of trypticase soy broth. Either magainin 2 carboxy terminal amide, PGLa, or ALSKALSK ALSKALSKALSKALSK (Z-44) were added in increasing concentrations in the absence (Panel A) or presence (Panel B) of 50 mM NaF.

Data set [3] relates to PSEUDOMONAS AERUGINOSA
As to conditions: Panel A: Absence of NaF; approx. 1,000 bacteria in about 200 ul trypticase soy broth. As to the method:
as §1

[4] abbreviates: peptide 60ug/ml + NaF 25 mM, 10⁷ organisms in 1 ml TSB, 15 min at 37 C.

For the substance sodium fluoride [NaF], the “EOP (% viable)” value in data set [1] (NaF 25mM alone, 10⁷ organisms in 1 ml TSB, 15 min at 37 C) is given as 100%.
Take GIGKFLHSAKKFGKAFVGEIMNS-NH2 [MGN2]: the “MINIMAL INHIBITORY CONCENTRATION” value in data set [2] is listed as “exceeded 500 ug/ml”; in data set [2] (Panel A: Absence of NaF, approx. 1,000 bacteria in about 200 ul trypticase soy broth, listed as MGN2 (Magainin II)), “MGN2 (Magainin II) >500 ug/ml”; in data set [3], “MGN 2 250-500 ug/ml”. Besides, in data set [1] (60 ug/ml peptide + 50 mM NaF, 10⁷ organisms in 1 ml TSB), the “bacteria viable on plating” value is given as “all bacteria are killed”. The “potentiation of effective killing power by the addition of fluoride” value in data set [1] (60 ug/ml peptide, with vs without NaF) is listed as “over 1 million”. Also, in data set [1] (setting [4]), the CFU was found to be 0. Also, the “EOP (% viable)” value came out at 0% in data set [1] (setting [4]) and 90% in data set [1] (peptide 60ug/ml alone, 10⁷ organisms in 1 ml TSB, 15 min at 37 C).
